These results are taken from PMC4887995, “Small molecule dual-inhibitors of TRPV4 and TRPA1 for attenuation of inflammation and pain” (Scientific Reports, 2016).

Entries after “also recorded” stand apart in the source; their conditions may differ.

The target of one assay is TRPV4 (Rattus norvegicus, UniProt Q9ERZ8). The settings on record: for average peak ∆Ca++ concentration: ≈100 cells, vehicle control 1156.
For another assay, the target named is TRPA1 (Mus musculus, UniProt Q8BLA8).
In assay [1] the test system is formalin-evoked trigeminal irritant pain (TRPA1 contribution). The assay can be described thus: Trigeminal formalin irritant pain model, Trpv4-/- mice. The format is in vivo, mouse. The conditions noted are these: 25 mg/kg i.p. On the procedure: Figure 7 16-8 and 16-19 effectively attenuate formalin-evoked trigeminal irritant pain. (A) Time-course of nocifensive behavior in WT mice following whisker-pad injection of 4% formalin. The mice were pre-injected (i.p., 10 mg/kg; 15 min before formalin) with GSK205, 16-8 or 16-19. Note effective reduction of nocifensive behavior in the late “neural” phase by compounds 16-8, 16-19, not by GSK205. (B) Cumulative response binned into 3 phases: acute phase (0–5 min), interphase (5–15 min), and late “neural” phase (15–45 min). […] (C) As in (A), but also including Trpv4^−/− mice. Compounds were applied i.p. 15 min before formalin challenge, at 10 mg/kg except established TRPA1 blocker, A967079 (25 mg/kg). Previously-established attenuated nocifensive behavior in early and late phase in Trpv4^−/− mice was recapped, which was reduced further by TRPA1 blocker, A967079. (D) As in (B), plus inclusion of Trpv4^−/− mice. Robust effects of TRPA1-blocker, A967079, were mimicked equi-potently by 16-8 and 16-19 for early phase, and by 16-8 for late phase, partially by 16-19 for late phase. (A,C) show averaged behavioral metrics per time-point, bars in (B,D) represent mean ± SEM; for (D) ^*P < 0.05; ^#P < 0.005, one-way ANOVA; for all panels n = 5–8 mice/group. […] We observed significant residual irritant-pain behavior in all phases of the formalin model in Trpv4^−/− mice, consistent with our previous report[13] (Fig. 7C,D). […] A reference TRPA1-inhibitory compound, A967079, was used at 25 mg/kg body weight as a positive control to inhibit TRPA1, based on a previous report. Reduction of pain behavior in Trpv4^−/− mice was striking, more than 50% in the late neural phase. […] We conclude that compound 16-8 also functions as a potent TRPA1-inhibitor in an in-vivo irritant pain model specifically designed to assess the contribution of TRPA1 to trigeminal irritant pain, and at least as potent as an established reference TRPA1-antagonistic compound. Implementation of this model was conducted as described previously. Video-taped nocifensive behavior was assessed by investigators blinded to genotype and treatment.

The test system of assay [2] is formalin-evoked trigeminal irritant pain. The assay can be described thus: Trigeminal formalin irritant pain model, WT mice. The conditions noted are these: 10 mg/kg i.p., 15 min before 4% formalin, 15–45 min. The format is in vivo, mouse. The procedure:
Figure 7 16-8 and 16-19 effectively attenuate formalin-evoked trigeminal irritant pain. (A) Time-course of nocifensive behavior in WT mice following whisker-pad injection of 4% formalin. The mice were pre-injected (i.p., 10 mg/kg; 15 min before formalin) with GSK205, 16-8 or 16-19. Note effective reduction of nocifensive behavior in the late “neural” phase by compounds 16-8, 16-19, not by GSK205. (B) Cumulative response binned into 3 phases: acute phase (0–5 min), interphase (5–15 min), and late “neural” phase (15–45 min). […] (C) As in (A), but also including Trpv4^−/− mice. Compounds were applied i.p. 15 min before formalin challenge, at 10 mg/kg except established TRPA1 blocker, A967079 (25 mg/kg). Previously-established attenuated nocifensive behavior in early and late phase in Trpv4^−/− mice was recapped, which was reduced further by TRPA1 blocker, A967079. (D) As in (B), plus inclusion of Trpv4^−/− mice. Robust effects of TRPA1-blocker, A967079, were mimicked equi-potently by 16-8 and 16-19 for early phase, and by 16-8 for late phase, partially by 16-19 for late phase. (A,C) show averaged behavioral metrics per time-point, bars in (B,D) represent mean ± SEM; for (D) ^*P < 0.05; ^#P < 0.005, one-way ANOVA; for all panels n = 5–8 mice/group. Implementation of this model was conducted as described previously. Video-taped nocifensive behavior was assessed by investigators blinded to genotype and treatment.

Assay [3] has the same test system. Set-up: method as in PMID 25281928. The settings on record: intradermal injection; cited from earlier work.

By IC50 is commonly meant the concentration at which inhibition is half-maximal.

Chain of TRPA1 (Q8BLA8 whole entry): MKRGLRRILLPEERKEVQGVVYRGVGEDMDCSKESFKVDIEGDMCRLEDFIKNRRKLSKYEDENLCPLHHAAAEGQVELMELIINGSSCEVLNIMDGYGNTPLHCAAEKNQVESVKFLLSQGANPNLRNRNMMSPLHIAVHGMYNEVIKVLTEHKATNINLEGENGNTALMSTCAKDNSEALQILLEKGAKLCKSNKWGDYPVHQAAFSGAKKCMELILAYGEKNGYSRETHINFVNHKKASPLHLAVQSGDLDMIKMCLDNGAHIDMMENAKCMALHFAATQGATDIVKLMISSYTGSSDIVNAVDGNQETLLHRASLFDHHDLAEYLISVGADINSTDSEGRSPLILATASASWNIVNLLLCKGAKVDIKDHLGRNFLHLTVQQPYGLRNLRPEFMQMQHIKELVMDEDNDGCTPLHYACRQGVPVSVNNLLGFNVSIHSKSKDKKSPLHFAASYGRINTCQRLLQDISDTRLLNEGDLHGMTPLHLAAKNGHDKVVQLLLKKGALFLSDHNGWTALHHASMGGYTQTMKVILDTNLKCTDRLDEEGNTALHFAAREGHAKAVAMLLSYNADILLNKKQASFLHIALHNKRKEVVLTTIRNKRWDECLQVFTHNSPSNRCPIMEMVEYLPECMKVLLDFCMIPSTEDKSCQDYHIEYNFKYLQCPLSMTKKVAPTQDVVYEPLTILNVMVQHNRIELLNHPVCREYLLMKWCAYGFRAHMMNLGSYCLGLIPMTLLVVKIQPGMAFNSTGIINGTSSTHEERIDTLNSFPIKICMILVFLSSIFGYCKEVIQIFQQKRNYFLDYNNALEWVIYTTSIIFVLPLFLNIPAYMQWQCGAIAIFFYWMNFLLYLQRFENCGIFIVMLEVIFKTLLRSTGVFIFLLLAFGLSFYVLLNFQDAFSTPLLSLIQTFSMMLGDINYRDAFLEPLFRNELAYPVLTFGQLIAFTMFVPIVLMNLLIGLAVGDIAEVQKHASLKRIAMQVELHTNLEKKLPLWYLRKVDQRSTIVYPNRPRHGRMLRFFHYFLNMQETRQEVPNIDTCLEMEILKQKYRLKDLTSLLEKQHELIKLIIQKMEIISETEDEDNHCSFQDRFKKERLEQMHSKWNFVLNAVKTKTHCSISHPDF
Chain of TRPV4 (Q9ERZ8 whole entry): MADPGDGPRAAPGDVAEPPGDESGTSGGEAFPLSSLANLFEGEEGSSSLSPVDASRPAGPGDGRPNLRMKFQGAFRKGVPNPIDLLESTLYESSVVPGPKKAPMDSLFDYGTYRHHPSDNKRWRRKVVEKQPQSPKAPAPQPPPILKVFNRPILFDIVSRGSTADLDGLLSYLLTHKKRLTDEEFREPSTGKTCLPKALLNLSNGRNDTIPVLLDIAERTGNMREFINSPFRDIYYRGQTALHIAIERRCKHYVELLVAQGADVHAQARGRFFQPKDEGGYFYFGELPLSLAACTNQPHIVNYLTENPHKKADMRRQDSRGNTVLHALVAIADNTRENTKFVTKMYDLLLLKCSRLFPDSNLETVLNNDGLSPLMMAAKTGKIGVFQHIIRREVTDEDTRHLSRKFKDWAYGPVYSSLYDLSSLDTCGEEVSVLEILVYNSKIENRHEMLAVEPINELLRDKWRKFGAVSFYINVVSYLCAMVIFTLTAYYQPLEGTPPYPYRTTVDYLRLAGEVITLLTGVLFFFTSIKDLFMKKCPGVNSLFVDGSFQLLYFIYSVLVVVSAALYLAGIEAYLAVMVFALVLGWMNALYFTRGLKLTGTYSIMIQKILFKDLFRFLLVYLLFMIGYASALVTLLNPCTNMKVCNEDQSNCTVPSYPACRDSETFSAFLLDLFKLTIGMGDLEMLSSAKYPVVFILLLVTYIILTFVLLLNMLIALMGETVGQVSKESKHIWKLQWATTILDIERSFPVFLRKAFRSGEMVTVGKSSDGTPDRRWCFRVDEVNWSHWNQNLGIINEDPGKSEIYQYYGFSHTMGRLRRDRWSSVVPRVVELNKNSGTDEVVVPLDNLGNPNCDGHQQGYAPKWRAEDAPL

Regarding `CN(CCc1ccc(Nc2nc(-c3cccnc3)cs2)cc1)CCc1cccnc1` [16-12], at TRPV4 (5 μM inhibitor, GSK101 5 nM), the “average peak ∆Ca++ concentration” value was 39.5 nM.

`CN(CCc1ccc(Nc2nc(-c3ccncc3)cs2)cc1)Cc1ccccc1` [16-13]: the “average peak ∆Ca++ concentration” value on TRPV4 (5 μM inhibitor, GSK101 5 nM) came out at 52 nM.

For the compound `CN(CCc1ccc(Nc2nc(-c3ccccn3)cs2)cc1)Cc1ccccc1` [16-14], at TRPV4 (5 μM inhibitor, GSK101 5 nM), the “average peak ∆Ca++ concentration” value is recorded as 558 nM.

In the case of `CN(CCc1ccc(Nc2nc(-c3cccnc3)cs2)cc1)c1ccccc1` [16-16], at TRPV4 (5 μM inhibitor, GSK101 5 nM), the “average peak ∆Ca++ concentration” value is recorded as 263 nM.

As to `CCN(CCc1ccc(Nc2nc(-c3cccnc3)cs2)cc1)Cc1ccccc1` [16-18], the IC50 at TRPA1 was more than 25 µM. Moreover, the “activity vs TRPA1” value at TRPA1 (100 μM mustard oil, N2a cells) is “no significant activity”. Further, the “average peak ∆Ca++ concentration” value on TRPV4 (5 μM inhibitor, GSK101 5 nM) is given as 14 nM. The “increased potency over GSK205” value at TRPV4 (from TRPV4 IC50 values) is given as approximately 5 fold.

Regarding `CN(CCc1ccc(Nc2ncc(-c3cccnc3)s2)cc1)Cc1ccccc1` [16-43C], on TRPV4 (5 μM inhibitor, GSK101 5 nM), the “inhibition of TRPV4-mediated Ca++ influx” value was “did not inhibit Ca^++ influx” and the “average peak ∆Ca++ concentration” value came out at 1210 nM.

Take `CCC(=N\O)/C(C)=C/c1ccc(F)cc1` [A967079, reference compound]: in assay [1], the “reduction of pain behavior, late neural phase” value is given as “more than 50%”.

On to `CN(CCc1ccc(Nc2nc(-c3cccnc3)cs2)cc1)Cc1ccccc1` [GSK205, reference compound], for which the IC50 was determined as 5.56 µM against TRPA1 and 4.19 ± 0.71 µM at TRPV4. Moreover, the “average peak ∆Ca++ concentration” value on TRPV4 (5 μM inhibitor, GSK101 5 nM) is listed as 650 nM. In assay [2], the “pain behavior, delayed (late neural) phase” value is on record as “no significant effect”. Also, the “attenuation of trigeminal formalin-evoked pain behavior” value in assay [3] was “effective attenuation; also recorded: effective previously in a dose-dependent manner”.
